From ChEMBL document CHEMBL1201862, “PubChem BioAssay data set” (2004)
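Tested at 5 concentrations; 48 h exposure; 96-well plates; endpoints linearly interpolated, else capped at highest concentration. GI50: concentration for 50% inhibition of growth.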 Active and inactive are the calls of the source. Rule as the data show it: active = GI50 up to about 1.1 µM and inactive = higher.

Tests used:
Assay in all cases: NCI anticancer screen, dose series, 48 h
ACHN = system: ACHN
SNB-78 = system: SNB-78
MDA-MB-231 = system: MDA-MB-231
BT-549 = system: BT-549
KM-20L2 = system: KM-20L2
SF-539 = system: SF-539
SNB-19 = system: SNB-19
UACC-257 = system: UACC-257
SK-MEL-5 = system: SK-MEL-5
RPMI-8226 = system: RPMI-8226
M14 = system: M14
NCI-H522 = system: NCI-H522
MDA-N = system: MDA-N
SF-295 = system: SF-295
OVCAR-4 = system: OVCAR-4
UO-31 = system: UO-31
NCI-H23 = system: NCI-H23
HOP-18 = system: HOP-18
T47D = system: T47D
M19-MEL = system: M19-MEL
OVCAR-5 = system: OVCAR-5
HOP-62 = system: HOP-62
DMS-114 = system: DMS-114
A549 = system: A549
KM12 = system: KM12
RXF 393 = system: RXF 393
HCC 2998 = system: HCC 2998
HCT-15 = system: HCT-15
MOLT-4 = system: MOLT-4
K562 = system: K562
Hs-578T = system: Hs-578T
HOP-92 = system: HOP-92
EKVX = system: EKVX
CCRF-CEM = system: CCRF-CEM
PC-3 = system: PC-3
MDA-MB-435 = system: MDA-MB-435
A498 = system: A498
XF498 = system: XF498
IGROV-1 = system: IGROV-1
UACC-62 = system: UACC-62
SK-MEL-28 = system: SK-MEL-28
HL-60 = system: HL-60
OVCAR-3 = system: OVCAR-3
DU-145 = system: DU-145
SK-OV-3 = system: SK-OV-3
U-251 = system: U-251
MCF7 = system: MCF7
DMS-273 = system: DMS-273
HCT-116 = system: HCT-116
NCI/ADR-RES = system: NCI/ADR-RES
SN12C = system: SN12C
LOX IMVI = system: LOX IMVI
DLD-1 = system: DLD-1
COLO 205 = system: COLO 205
SR = system: SR
SK-MEL-2 = system: SK-MEL-2
SF-268 = system: SF-268
Malme-3M = system: Malme-3M
HT-29 = system: HT-29
SNB-75 = system: SNB-75
CAKI-1 = system: CAKI-1
TK-10 = system: TK-10
OVCAR-8 = system: OVCAR-8
SW-620 = system: SW-620
786-0 = system: 786-0
NCI-H460 = system: NCI-H460
NCI-H226 = system: NCI-H226
LXFL 529 = system: LXFL 529

For Cc1cn(C2CC(O)C(CO)O2)c(=O)[nH]c1=O (stereo not given), the GI50 (ACHN) was 1840 µM (inactive), the GI50 (SNB-78) was 3180 µM (inactive) and the GI50 (MDA-MB-231) was > 3520 µM (inactive). For the same compound, the GI50 (BT-549) was > 5000 µM (inactive), the GI50 (KM-20L2) was 3360 µM (inactive) and the GI50 (SF-539) was 3670 µM (inactive). The GI50 (SNB-19) was 1730 µM (inactive), the GI50 (UACC-257) was 3760 µM (inactive) and the GI50 (SK-MEL-5) was 4450 µM (inactive). For the same compound, the GI50 (RPMI-8226) was 2050 µM (inactive), the GI50 (M14) was 1850 µM (inactive) and the GI50 (NCI-H522) was 1690 µM (inactive). For the same compound, the GI50 (MDA-N) was 3780 µM (inactive), the GI50 (SF-295) was 2290 µM (inactive) and the GI50 (OVCAR-4) was > 3890 µM (inactive). For the same compound, the GI50 (UO-31) was 3670 µM (inactive), the GI50 (NCI-H23) was 1020 µM (inactive) and the GI50 (HOP-18) was 4610 µM (inactive). The GI50 (T47D) was > 4080 µM (inactive), the GI50 (M19-MEL) was 1070 µM (inactive) and the GI50 (OVCAR-5) was 4060 µM (inactive). For the same compound, the GI50 (HOP-62) was 1380 µM (inactive), the GI50 (DMS-114) was 728 µM (inactive) and the GI50 (A549) was 689 µM (inactive). For the same compound, the GI50 (KM12) was > 4930 µM (inactive), the GI50 (RXF 393) was 2510 µM (inactive) and the GI50 (HCC 2998) was 3680 µM (inactive). The GI50 (HCT-15) was 3370 µM, the GI50 (MOLT-4) was 386 µM (inactive) and the GI50 (K562) was 1540 µM (inactive). The GI50 (Hs-578T) was 3900 µM (inactive), the GI50 (HOP-92) was 3020 µM (inactive) and the GI50 (EKVX) was 2380 µM (inactive). For the same compound, the GI50 (CCRF-CEM) was 54.7 µM (inactive), the GI50 (PC-3) was > 5000 µM (inactive) and the GI50 (MDA-MB-435) was 4940 µM (inactive). The GI50 (A498) was > 4670 µM (inactive), the GI50 (XF498) was 263 µM (inactive) and the GI50 (IGROV-1) was > 4900 µM (inactive). The GI50 (UACC-62) was 843 µM (inactive), the GI50 (SK-MEL-28) was 1360 µM (inactive) and the GI50 (HL-60) was > 4760 µM (inactive). The GI50 (OVCAR-3) was 1490 µM (inactive), the GI50 (DU-145) was > 4450 µM (inactive) and the GI50 (SK-OV-3) was 2480 µM (inactive). For the same compound, the GI50 (U-251) was 1530 µM (inactive), the GI50 (MCF7) was 325 µM (inactive) and the GI50 (DMS-273) was 3780 µM (inactive). The GI50 (HCT-116) was 1930 µM (inactive), the GI50 (NCI/ADR-RES) was 2260 µM (inactive) and the GI50 (SN12C) was 1220 µM (inactive). The GI50 (LOX IMVI) was 1310 µM (inactive), the GI50 (DLD-1) was 2700 µM (inactive) and the GI50 (COLO 205) was 3090 µM (inactive). The GI50 (SR) was > 2020 µM (inactive), the GI50 (SK-MEL-2) was 3880 µM (inactive) and the GI50 (SF-268) was 2280 µM (inactive). The GI50 (Malme-3M) was 2410 µM (inactive), the GI50 (HT-29) was 4430 µM (inactive) and the GI50 (SNB-75) was 3630 µM (inactive). The GI50 (CAKI-1) was 1420 µM (inactive), the GI50 (TK-10) was > 5000 µM (inactive) and the GI50 (OVCAR-8) was 1590 µM (inactive). For the same compound, the GI50 (SW-620) was 2130 µM (inactive), the GI50 (786-0) was 1160 µM (inactive) and the GI50 (NCI-H460) was 655 µM (inactive). For the same compound, the GI50 (NCI-H226) was 3780 µM (inactive).
With CCCCCCCCCCCC(=O)OCC1OC(OC)C(NC(=O)N(CCCl)N=O)C(O)C1O (stereo not given) the GI50 (ACHN) was 10.6 µM (inactive), the GI50 (KM-20L2) was 17 µM (inactive) and the GI50 (SF-539) was 2.96 µM (inactive). For the same compound, the GI50 (SNB-19) was 10.1 µM (inactive), the GI50 (UACC-257) was 14.3 µM (inactive) and the GI50 (SK-MEL-5) was 13.1 µM (inactive). For the same compound, the GI50 (RPMI-8226) was 7.5 µM (inactive), the GI50 (M14) was 11.1 µM (inactive) and the GI50 (NCI-H522) was 10.3 µM (inactive). For the same compound, the GI50 (SF-295) was 8.24 µM (inactive), the GI50 (OVCAR-4) was 17.8 µM (inactive) and the GI50 (UO-31) was 16.7 µM (inactive). For the same compound, the GI50 (NCI-H23) was > 10 µM (inactive), the GI50 (HOP-18) was 34.3 µM (inactive) and the GI50 (M19-MEL) was 38.8 µM (inactive). For the same compound, the GI50 (OVCAR-5) was 20.4 µM (inactive), the GI50 (HOP-62) was 18.7 µM (inactive) and the GI50 (DMS-114) was 16.6 µM (inactive). For the same compound, the GI50 (A549) was 12.5 µM (inactive), the GI50 (KM12) was 17.3 µM (inactive) and the GI50 (RXF 393) was 13.3 µM (inactive). For the same compound, the GI50 (HCC 2998) was 14.4 µM (inactive), the GI50 (HCT-15) was 27.2 µM and the GI50 (MOLT-4) was 1.69 µM (inactive). For the same compound, the GI50 (K562) was 10.3 µM (inactive), the GI50 (CCRF-CEM) was 0.516 µM (active) and the GI50 (LXFL 529) was 12.6 µM (inactive). For the same compound, the GI50 (A498) was 18.7 µM (inactive), the GI50 (XF498) was 12.4 µM (inactive) and the GI50 (IGROV-1) was 29.7 µM (inactive). The GI50 (UACC-62) was 1.33 µM (inactive), the GI50 (SK-MEL-28) was 15.8 µM (inactive) and the GI50 (OVCAR-3) was 16.3 µM (inactive). The GI50 (U-251) was 7.06 µM (inactive), the GI50 (DMS-273) was 11.2 µM (inactive) and the GI50 (HCT-116) was 13.2 µM (inactive). For the same compound, the GI50 (SN12C) was 11.6 µM (inactive), the GI50 (LOX IMVI) was 6.27 µM (inactive) and the GI50 (DLD-1) was 17.5 µM (inactive). The GI50 (COLO 205) was 21.9 µM (inactive), the GI50 (SR) was 2.79 µM (inactive) and the GI50 (SK-MEL-2) was 26.3 µM (inactive). The GI50 (SF-268) was 2.32 µM (inactive), the GI50 (Malme-3M) was 12.2 µM (inactive) and the GI50 (HT-29) was 16.9 µM (inactive). The GI50 (SNB-75) was 14.1 µM (inactive), the GI50 (CAKI-1) was > 100 µM (inactive) and the GI50 (TK-10) was 25.7 µM (inactive). The GI50 (OVCAR-8) was 19.3 µM (inactive), the GI50 (SW-620) was 4.27 µM (inactive) and the GI50 (786-0) was 0.621 µM (active). The GI50 (NCI-H460) was 5.22 µM (inactive) and the GI50 (NCI-H226) was 23 µM (inactive).
